The values that follow come from US11540518B2, “Fungicidal oxadiazoles” (FMC Corporation, priority 2017, dated 2023).

Type in all cases: in vivo
For assay [1], the system named is Puccinia recondita f. sp. tritici. Description: Test C: wheat leaf rust control on wheat seedlings. Conditions: sprayed to run-off on wheat seedlings, inoculated the following day, 100 = 100% disease control, 0 = no control. From the text: General protocol for preparing test suspensions for Tests A-C: the test compounds were first dissolved in acetone in an amount equal to 3% of the final volume and then suspended at the desired concentration (in ppm) in acetone and purified water (50/50 mix by volume) containing 250 ppm of the surfactant PEG400 (polyhydric alcohol esters). The resulting test suspensions were then used in Tests A-C. The test solution was sprayed to the point of run-off on wheat seedlings. The following day the seedlings were inoculated with a spore suspension of Puccinia recondita f. sp. tritici (the causal agent of wheat leaf rust) and incubated in a saturated atmosphere at 20° C. for 24 h, and then moved to a growth chamber at 20° C. for 6 days, after which time disease ratings were made. Results for Tests A-C are given in Table A. In the Table, a rating of 100 indicates 100% disease control and a rating of 0 indicates no disease control (relative to the controls). A dash (-) indicates the compound was not tested.

Assay [2] concerns Zymoseptoria tritici. Description: Test B: wheat leaf blotch control on wheat seedlings. To be noted: sprayed to run-off on wheat seedlings, inoculated the following day, 100 = 100% disease control, 0 = no control. From the text:
General protocol for preparing test suspensions for Tests A-C: the test compounds were first dissolved in acetone in an amount equal to 3% of the final volume and then suspended at the desired concentration (in ppm) in acetone and purified water (50/50 mix by volume) containing 250 ppm of the surfactant PEG400 (polyhydric alcohol esters). The resulting test suspensions were then used in Tests A-C. The test solution was sprayed to the point of run-off on wheat seedlings. The following day the seedlings were inoculated with a spore suspension of Zymoseptoria tritici (the causal agent of wheat leaf blotch) and incubated in a saturated atmosphere at 24° C. for 48 h, and then moved to a growth chamber at 20° C. for 17 days, after which time disease ratings were made. Results for Tests A-C are given in Table A. In the Table, a rating of 100 indicates 100% disease control and a rating of 0 indicates no disease control (relative to the controls). A dash (-) indicates the compound was not tested.

The subject of assay [3] is Phakopsora pachyrhizi. Put plainly: Test A: Asian soybean rust control on soybean seedlings. To be noted: sprayed to run-off on soybean seedlings, inoculated the following day, 100 = 100% disease control, 0 = no control. From the text:
General protocol for preparing test suspensions for Tests A-C: the test compounds were first dissolved in acetone in an amount equal to 3% of the final volume and then suspended at the desired concentration (in ppm) in acetone and purified water (50/50 mix by volume) containing 250 ppm of the surfactant PEG400 (polyhydric alcohol esters). The resulting test suspensions were then used in Tests A-C.
The test solution was sprayed to the point of run-off on soybean seedlings. The following day the seedlings were inoculated with a spore suspension of Phakopsora pachyrhizi (the causal agent of Asian soybean rust) and incubated in a saturated atmosphere at 22° C. for 24 h, and then moved to a growth chamber at 22° C. for 8 days, after which time visual disease ratings were made.
Results for Tests A-C are given in Table A. In the Table, a rating of 100 indicates 100% disease control and a rating of 0 indicates no disease control (relative to the controls). A dash (-) indicates the compound was not tested.

Setting [4] is: 250 ppm (incl. values marked * = tested at 250 ppm).

In the case of `COC(=O)NN=Cc1ccc(-c2noc(C(F)(F)F)n2)s1` [Compound 141], the “Test C disease control rating” value in assay [1] (50 ppm) is 100%. In addition, the “Test B disease control rating” value in assay [2] (setting [4]) is listed as 93* %. The “Test A disease control rating” value in assay [3] (50 ppm) was 100%.
For `CCOC(=O)NC(=O)OCc1ccc(-c2noc(C(F)(F)F)n2)cc1` [Compound 79], the “Test C disease control rating” value in assay [1] (10 ppm) came to 97%. Besides, the “Test B disease control rating” value in assay [2] (10 ppm) came to 98%. The “Test A disease control rating” value in assay [3] (10 ppm) is given as 100%.
Turning to `C#CCNC(=O)OCc1cccc(-c2noc(C(F)(F)F)n2)c1` [Compound 96], in assay [1] (250 ppm), the “Test C disease control rating” value is 100%. The “Test B disease control rating” value in assay [2] (setting [4]) came to 64%. Besides, in assay [3] (250 ppm), the “Test A disease control rating” value was 100%.
Take `CCNC(=O)OCc1ccc(-c2noc(C(F)(F)F)n2)cc1` [Compound 2]: the “Test C disease control rating” value in assay [1] (260 ppm) was 100%. For the same compound, the “Test B disease control rating” value in assay [2] (260 ppm) stood at 99%. Besides, the “Test A disease control rating” value in assay [3] (260 ppm) was 100%.
As for `O=C(OCc1ccc(-c2noc(C(F)(F)F)n2)cc1)n1ccnc1` [Compound 8, 2-[4-[5-(trifluoromethyl)-1,2,4-oxadiazol-3-yl]phenyl]methyl-1H-imidazole-1-carboxylate], the “Test C disease control rating” value in assay [1] (255 ppm) came out at 100%. In addition, in assay [2] (255 ppm), the “Test B disease control rating” value turned out to be 13%. Further, the “Test A disease control rating” value in assay [3] (255 ppm) turned out to be 100%.
Consider `O=C(Nc1cccnc1)OCCCc1ccc(-c2noc(C(F)(F)F)n2)cc1` [Compound 35], for which, in assay [1] (50 ppm), the “Test C disease control rating” value was 100%. For the same compound, the “Test A disease control rating” value in assay [3] (50 ppm) was determined as 100%.
Take `CN(C)C(=O)OC(c1ccccc1)c1ccc(-c2noc(C(F)(F)F)n2)cc1` (stereo not shown) [Compound 121]: in assay [1] (250 ppm), the “Test C disease control rating” value worked out at 99%. The “Test A disease control rating” value in assay [3] (250 ppm) is listed as 100%.
Taken in the same sequence, the figures for `C#CCCNC(=O)OC(c1ccccc1)c1ccc(-c2noc(C(F)(F)F)n2)cc1` (stereo not shown) [Compound 120] were 100% and 100%.
Regarding `Cc1ccccc1C(OC(=O)n1ccnc1)c1ccc(-c2noc(C(F)(F)F)n2)cc1` (stereo not shown) [Compound 142], the “Test C disease control rating” value in assay [1] (10 ppm) came out at 0%. Also, the “Test A disease control rating” value in assay [3] (10 ppm) turned out to be 98%.
For the compound `CC(OC(=O)Nc1cccnc1)c1ccc(-c2noc(C(F)(F)F)n2)cc1` (stereo not shown) [Compound 23, 1-[4-[5-(trifluoromethyl)-1,2,4-oxadiazol-3-yl]phenyl]ethyl N-3-pyridinylcarbamate], the pest or weed control at 10 ppm in assay [1] (Puccinia recondita, 168 h, 10 ppm, read-out: Test C disease control rating) came out at 97%; in assay [3] (Phakopsora pachyrhizi, 216 h, 10 ppm, read-out: Test A disease control rating) it was 100%.
In the case of `O=C(NC1CC1)OCc1ccc(-c2noc(C(F)(F)F)n2)cc1` [Compound 54], the “Test C disease control rating” value in assay [1] (10 ppm) is 92%. In addition, the “Test A disease control rating” value in assay [3] (10 ppm) is 100%.
On to `CN(N=Cc1ccc(-c2noc(C(F)(F)F)n2)cc1)C(=O)OC(C)(C)C` [Compound 109], for which the “Test C disease control rating” value in assay [1] (50 ppm) came out at 95%. Further, the “Test A disease control rating” value in assay [3] (50 ppm) came to 100%.
Consider `N#CCNC(=O)OCc1ccc(-c2noc(C(F)(F)F)n2)cc1` [Compound 55], for which the “Test C disease control rating” value in assay [1] (10 ppm) is given as 86%. Moreover, the “Test A disease control rating” value in assay [3] (10 ppm) came to 100%.
As to `COC(=O)c1ccc(CNC(=O)OC(C)c2ccc(-c3noc(C(F)(F)F)n3)cc2)cc1` (racemic) [Compound 25], the “Test C disease control rating” value in assay [1] (10 ppm) was found to be 26%. Besides, in assay [3] (10 ppm), the “Test A disease control rating” value turned out to be 100%.
Turning to `CC#CCNC(=O)OCCCc1ccc(-c2noc(C(F)(F)F)n2)cc1` [Compound 64], the “Test C disease control rating” value in assay [1] (50 ppm) was determined as 100%. The “Test A disease control rating” value in assay [3] (50 ppm) is on record as 100%.
`CCN(C)C(=O)OCc1ccc(-c2noc(C(F)(F)F)n2)cc1` [Compound 52]: the “Test C disease control rating” value in assay [1] (10 ppm) turned out to be 68%. In addition, the “Test A disease control rating” value in assay [3] (10 ppm) is recorded as 100%.
Taken in the same sequence, the figures for `C#CCNC(=O)OCCCc1ccc(-c2noc(C(F)(F)F)n2)cc1` [Compound 30] were 99% and 100%.
For `C#CCCNC(=O)OC(C)c1ccc(-c2noc(C(F)(F)F)n2)cc1` (stereo not shown) [Compound 67], in assay [1] (50 ppm), the “Test C disease control rating” value is recorded as 100%. In addition, the “Test A disease control rating” value in assay [3] (50 ppm) is recorded as 100%.
For the compound `CN(C)C(=O)OCCc1ccc(-c2noc(C(F)(F)F)n2)cc1` [Compound 44], the “Test C disease control rating” value in assay [1] (10 ppm) is on record as 41%. Besides, in assay [3] (10 ppm), the “Test A disease control rating” value was determined as 100%.
With `CCOC(=O)c1ccc(CNC(=O)OCc2ccc(-c3noc(C(F)(F)F)n3)cc2)cc1` [Compound 26], the “Test C disease control rating” value in assay [1] (10 ppm) was 26%. Further, the “Test A disease control rating” value in assay [3] (10 ppm) was 95%.
Turning to `COC(=O)c1ccc(NC(=O)OCCc2ccc(-c3noc(C(F)(F)F)n3)cc2)cc1` [Compound 49], the “Test C disease control rating” value in assay [1] (50 ppm) is listed as 0%. In assay [3] (50 ppm), the “Test A disease control rating” value is 96%.
For `COCCNC(=O)OC(c1ccccc1)c1ccc(-c2noc(C(F)(F)F)n2)cc1` (stereo not shown) [Compound 122], in assay [1] (10 ppm), the “Test C disease control rating” value is reported as 89%. The “Test A disease control rating” value in assay [3] (10 ppm) is reported as 100%.
For `C=CCNC(=O)OCCCc1ccc(-c2noc(C(F)(F)F)n2)cc1` [Compound 29] the same measures were 74% and 100%.
For the compound `CCOC(=O)c1ccc(CNC(=O)OCCCc2ccc(-c3noc(C(F)(F)F)n3)cc2)cc1` [Compound 69], the “Test C disease control rating” value in assay [1] (50 ppm) came out at 0%. In addition, the “Test A disease control rating” value in assay [3] (50 ppm) turned out to be 100%.
Turning to `COC(=O)NN=C(C)c1ccc(-c2noc(C(F)(F)F)n2)cc1` [Compound 108], in assay [1] (10 ppm), the “Test C disease control rating” value is on record as 89%. Moreover, the “Test A disease control rating” value in assay [3] (10 ppm) worked out at 92%.
Turning to `CN(C)C(=O)OCCCc1ccc(-c2noc(C(F)(F)F)n2)cc1` [Compound 28], the “Test C disease control rating” value in assay [1] (10 ppm) was 40%. For the same compound, the “Test A disease control rating” value in assay [3] (10 ppm) is recorded as 100%.
On to `COC(=O)c1ccc(NC(=O)OCc2ccc(-c3noc(C(F)(F)F)n3)cc2)cc1` [Compound 47], for which, in assay [1] (50 ppm), the “Test C disease control rating” value was 41%. Besides, in assay [3] (50 ppm), the “Test A disease control rating” value is 100%.
As to `C#CCNC(=O)OC(C)c1ccc(-c2noc(C(F)(F)F)n2)s1` (stereo not shown) [Compound 61], the “Test C disease control rating” value in assay [1] (10 ppm) was found to be 100%. Besides, the “Test A disease control rating” value in assay [3] (10 ppm) is reported as 100%.
Consider `COC(=O)c1ccc(NC(=O)OCCCc2ccc(-c3noc(C(F)(F)F)n3)cc2)cc1` [Compound 50], for which, in assay [1] (50 ppm), the “Test C disease control rating” value is 0%. The “Test A disease control rating” value in assay [3] (50 ppm) turned out to be 0%.
Take `C#CCNC(=O)OCc1ccc(-c2noc(C(F)(F)F)n2)o1` [Compound 81]: the “Test C disease control rating” value in assay [1] (10 ppm) is 45%. Moreover, the “Test A disease control rating” value in assay [3] (10 ppm) amounted to 0%.
In the case of `C#CCNC(=O)OC(c1ccccc1)c1ccc(-c2noc(C(F)(F)F)n2)cc1` (stereo not shown) [Compound 118], the “Test C disease control rating” value in assay [1] (250 ppm) came out at 100%. In addition, the “Test A disease control rating” value in assay [3] (250 ppm) was 100%.
Consider `CCOC(=O)c1ccc(NC(=O)OCCCc2ccc(-c3noc(C(F)(F)F)n3)cc2)cc1` [Compound 60], for which, in assay [1] (50 ppm), the “Test C disease control rating” value came out at 0%. In addition, the “Test A disease control rating” value in assay [3] (50 ppm) is 0%.
As to `CC#CCNC(=O)OC(C)c1ccc(-c2noc(C(F)(F)F)n2)cc1` (stereo not shown) [Compound 62], the “Test C disease control rating” value in assay [1] (50 ppm) was 100%. In addition, the “Test A disease control rating” value in assay [3] (50 ppm) is given as 100%.
Turning to `CNC(=O)OC(C)c1ccc(-c2noc(C(F)(F)F)n2)cc1` (stereo not shown) [Compound 71], the “Test C disease control rating” value in assay [1] (10 ppm) was found to be 83%. In addition, the “Test A disease control rating” value in assay [3] (10 ppm) turned out to be 100%.
